Results from patent US12679843B2, “Pyrrolopyrimidine amines as complement inhibitors” (BioCryst Pharmaceuticals, Inc., priority 2020, dated 2026).

The molecules below were run against Factor D (Homo sapiens, UniProt P00746) (assay: Factor D esterolytic assay (Z-Lys-SBzl thioester substrate, DTNB, 405 nm)). Conditions: substrate Z-Lys-SBzl 1.29 mM, 100 mM HEPES, 500 mM NaCl, pH 7.5, 10% DMSO, tested a minimum of three times.
Assay type: biochemical
In short: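 Run in pH 7.5 HEPES (100 mM) with 500 mM NaCl and 10% DMSO, with compound preincubated at room temperature or not before adding 1.29 mM Z-Lys-SBzl. Free thiol released by Factor D reacts with DTNB, and rate is followed at 405 nm minus 690 nm over 600 s. IC50 derives from rate-based inhibition, minimum three replicates.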

Sequence of Factor D (P00746 26-253): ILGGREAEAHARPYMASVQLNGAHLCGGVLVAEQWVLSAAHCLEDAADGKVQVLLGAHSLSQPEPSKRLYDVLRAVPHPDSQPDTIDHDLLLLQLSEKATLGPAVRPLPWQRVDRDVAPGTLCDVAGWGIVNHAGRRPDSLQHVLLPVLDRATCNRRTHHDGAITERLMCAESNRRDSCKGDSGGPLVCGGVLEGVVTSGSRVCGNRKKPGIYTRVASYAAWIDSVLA

| SMILES | IC50 |
| --- | --- |
| C[C@@]12C[C@@H](C(=O)Nc3cccc(Br)n3)N(C(=O)Cn3c4ccc(-c5cccnc5)nc4c4c(N)ncnc43)[C@@H]1C2 [Compound 372a, (1R,3S,5R)-2-(2-(4-amino-6-(pyridin-3-yl)-9H-pyrido[2′,3′:4,5]pyrrolo[2,3-d]pyrimidin-9-yl)acetyl)-N-(6-bromopyridin-2-yl)-5-methyl-2-azabicyclo[3.1.0]hexane-3-carboxamide] | 100 to 1000 nM |
| C[C@@]12C[C@@H](C(=O)Nc3cccc(Br)n3)N(C(=O)Cn3c4ccc(-c5ccncc5)nc4c4c(N)ncnc43)[C@@H]1C2 [Compound 373a, (1R,3S,5R)-2-(2-(4-amino-6-(pyridin-4-yl)-9H-pyrido[2′,3′:4,5]pyrrolo[2,3-d]pyrimidin-9-yl)acetyl)-N-(6-bromopyridin-2-yl)-5-methyl-2-azabicyclo[3.1.0]hexane-3-carboxamide] | 100 to 1000 nM |
| Cc1cc2c(cc1F)c1c(N)ncnc1n2CC(=O)N1[C@@H]2C[C@@H]2C[C@H]1C(=O)Nc1cccc(Br)n1 [Compound 381g, (1R,3S,5R)-2-(2-(4-amino-6-fluoro-7-methyl-9H-pyrimido[4,5-b]indol-9-yl)acetyl)-N-(6-bromopyridin-2-yl)-2-azabicyclo[3.1.0]hexane-3-carboxamide] | < 100 nM |
| Cc1cc2c(cc1F)c1c(N)ncnc1n2CC(=O)N1[C@H](C(=O)Nc2cccc(Br)n2)C[C@@]2(C)C[C@@H]12 [Compound 382a, (1R,3S,5R)-2-(2-(4-amino-6-fluoro-7-methyl-9H-pyrimido[4,5-b]indol-9-yl)acetyl)-N-(6-bromopyridin-2-yl)-5-methyl-2-azabicyclo[3.1.0]hexane-3-carboxamide] | < 100 nM |
| COc1cc2c(cc1F)c1c(N)ncnc1n2CC(=O)N1[C@@H]2C[C@@H]2C[C@H]1C(=O)Nc1cccc(Br)n1 [Compound 383g, (1R,3S,5R)-2-(2-(4-amino-6-fluoro-7-methoxy-9H-pyrimido[4,5-b]indol-9-yl)acetyl)-N-(6-bromopyridin-2-yl)-2-azabicyclo[3.1.0]hexane-3-carboxamide] | < 100 nM |
| Cc1cc2c3c(N)ncnc3n(CC(=O)N3[C@@H]4C[C@@H]4C[C@H]3C(=O)Nc3cccc(Br)n3)c2cc1F [Compound 384g, (1R,3S,5R)-2-(2-(4-amino-7-fluoro-6-methyl-9H-pyrimido[4,5-b]indol-9-yl)acetyl)-N-(6-bromopyridin-2-yl)-2-azabicyclo[3.1.0]hexane-3-carboxamide] | < 100 nM |
| Cc1cc2c3c(N)ncnc3n(CC(=O)N3[C@H](C(=O)Nc4cccc(Br)n4)C[C@@]4(C)C[C@@H]34)c2cc1F [Compound 385a, (1R,3S,5R)-2-(2-(4-amino-7-fluoro-6-methyl-9H-pyrimido[4,5-b]indol-9-yl)acetyl)-N-(6-bromopyridin-2-yl)-5-methyl-2-azabicyclo[3.1.0]hexane-3-carboxamide] | < 100 nM |
| Nc1ncnc2c1c1cc(F)c(F)cc1n2CC(=O)N1[C@@H]2C[C@@H]2C[C@H]1C(=O)Nc1cccc(Br)n1 [Compound 386g, (1R,3S,5R)-2-(2-(4-amino-6,7-difluoro-9H-pyrimido[4,5-b]indol-9-yl)acetyl)-N-(6-bromopyridin-2-yl)-2-azabicyclo[3.1.0]hexane-3-carboxamide] | < 100 nM |
| C[C@@]12C[C@@H](C(=O)Nc3cccc(Br)n3)N(C(=O)Cn3c4cc(F)c(F)cc4c4c(N)ncnc43)[C@@H]1C2 [Compound 387a, (1R,3S,5R)-2-(2-(4-amino-6,7-difluoro-9H-pyrimido[4,5-b]indol-9-yl)acetyl)-N-(6-bromopyridin-2-yl)-5-methyl-2-azabicyclo[3.1.0]hexane-3-carboxamide] | < 100 nM |
| COc1cc2c(cc1F)c1c(N)ncnc1n2CC(=O)N1[C@H](C(=O)Nc2cccc(Br)n2)C[C@@]2(C)C[C@@H]12 [Compound 388a, (1R,3S,5R)-2-(2-(4-amino-6-fluoro-7-methoxy-9H-pyrimido[4,5-b]indol-9-yl)acetyl)-N-(6-bromopyridin-2-yl)-5-methyl-2-azabicyclo[3.1.0]hexane-3-carboxamide] | < 100 nM |
| Nc1ncnc2c1c1cc(Br)c(F)cc1n2CC(=O)N1[C@@H]2C[C@@H]2C[C@H]1C(=O)Nc1cccc(Br)n1 [Compound 389g, (1R,3S,5R)-2-(2-(4-amino-6-bromo-7-fluoro-9H-pyrimido[4,5-b]indol-9-yl)acetyl)-N-(6-bromopyridin-2-yl)-2-azabicyclo[3.1.0]hexane-3-carboxamide] | < 100 nM |
| C[C@@]12C[C@@H](C(=O)Nc3cccc(Br)n3)N(C(=O)Cn3c4cc(F)c(Br)cc4c4c(N)ncnc43)[C@@H]1C2 [Compound 390a, (1R,3S,5R)-2-(2-(4-amino-6-bromo-7-fluoro-9H-pyrimido[4,5-b]indol-9-yl)acetyl)-N-(6-bromopyridin-2-yl)-5-methyl-2-azabicyclo[3.1.0]hexane-3-carboxamide] | < 100 nM |
| Cc1cc(F)c2c(c1)c1c(N)ncnc1n2CC(=O)N1[C@@H]2C[C@@H]2C[C@H]1C(=O)Nc1cccc(Br)n1 [Compound 391g, (1R,3S,5R)-2-(2-(4-amino-8-fluoro-6-methyl-9H-pyrimido[4,5-b]indol-9-yl)acetyl)-N-(6-bromopyridin-2-yl)-2-azabicyclo[3.1.0]hexane-3-carboxamide] | < 100 nM |
| Cc1cc(F)c2c(c1)c1c(N)ncnc1n2CC(=O)N1[C@H](C(=O)Nc2cccc(Br)n2)C[C@@]2(C)C[C@@H]12 [Compound 392a, (1R,3S,5R)-2-(2-(4-amino-8-fluoro-6-methyl-9H-pyrimido[4,5-b]indol-9-yl)acetyl)-N-(6-bromopyridin-2-yl)-5-methyl-2-azabicyclo[3.1.0]hexane-3-carboxamide] | < 100 nM |

Now from value to molecule:

| IC50 | SMILES |
| --- | --- |
| < 100 nM | COc1cc2c(cc1Br)c1c(N)ncnc1n2CC(=O)N1[C@@H]2C[C@@H]2C[C@H]1C(=O)Nc1cccc(Br)n1 [Compound 374g, (1R,3S,5R)-2-(2-(4-amino-6-bromo-7-methoxy-9H-pyrimido[4,5-b]indol-9-yl)acetyl)-N-(6-bromopyridin-2-yl)-2-azabicyclo[3.1.0]hexane-3-carboxamide] |
| < 100 nM | COc1cc2c(cc1Br)c1c(N)ncnc1n2CC(=O)N1[C@H](C(=O)Nc2cccc(Br)n2)C[C@@]2(C)C[C@@H]12 [Compound 375a, (1R,3S,5R)-2-(2-(4-amino-6-bromo-7-methoxy-9H-pyrimido[4,5-b]indol-9-yl)acetyl)-N-(6-bromopyridin-2-yl)-5-methyl-2-azabicyclo[3.1.0]hexane-3-carboxamide] |
| < 100 nM | Nc1ncnc2c1c1cc(Br)cc(F)c1n2CC(=O)N1[C@@H]2C[C@@H]2C[C@H]1C(=O)Nc1cccc(Br)n1 [Compound 376g, (1R,3S,5R)-2-(2-(4-amino-6-bromo-8-fluoro-9H-pyrimido[4,5-b]indol-9-yl)acetyl)-N-(6-bromopyridin-2-yl)-2-azabicyclo[3.1.0]hexane-3-carboxamide] |
| < 100 nM | C[C@@]12C[C@@H](C(=O)Nc3cccc(Br)n3)N(C(=O)Cn3c4ncnc(N)c4c4cc(Br)cc(F)c43)[C@@H]1C2 [Compound 377a, (1R,3S,5R)-2-(2-(4-amino-6-bromo-8-fluoro-9H-pyrimido[4,5-b]indol-9-yl)acetyl)-N-(6-bromopyridin-2-yl)-5-methyl-2-azabicyclo[3.1.0]hexane-3-carboxamide] |
| < 100 nM | Cc1cc(-c2ccccn2)cc2c3c(N)ncnc3n(CC(=O)N3[C@H](C(=O)Nc4cccc(Br)n4)C[C@@]4(C)C[C@@H]34)c12 [Compound 378c, (1R,3S,5R)-2-(2-(4-amino-8-methyl-6-(pyridin-2-yl)-9H-pyrimido[4,5-b]indol-9-yl)acetyl)-N-(6-bromopyridin-2-yl)-5-methyl-2-azabicyclo[3.1.0]hexane-3-carboxamide] |
| < 100 nM | Cc1cc2c(cc1Br)c1c(N)ncnc1n2CC(=O)N1[C@@H]2C[C@@H]2C[C@H]1C(=O)Nc1cccc(Br)n1 [Compound 379h, (1R,3S,5R)-2-(2-(4-amino-6-bromo-7-methyl-9H-pyrimido[4,5-b]indol-9-yl)acetyl)-N-(6-bromopyridin-2-yl)-2-azabicyclo[3.1.0]hexane-3-carboxamide] |
| < 100 nM | Cc1cc2c(cc1Br)c1c(N)ncnc1n2CC(=O)N1[C@H](C(=O)Nc2cccc(Br)n2)C[C@@]2(C)C[C@@H]12 [Compound 380a, (1R,3S,5R)-2-(2-(4-amino-6-bromo-7-methyl-9H-pyrimido[4,5-b]indol-9-yl)acetyl)-N-(6-bromopyridin-2-yl)-5-methyl-2-azabicyclo[3.1.0]hexane-3-carboxamide] |
